The values below come from article PMC9331716, “Nucleoside Transport and Nucleobase Uptake Null Mutants in Leishmania mexicana for the Routine Expression and Characterization of Purine and Pyrimidine Transporters” (International Journal of Molecular Sciences, 2022).

The test system of series [1] is L. mexicana cas9 cells. Briefly: Radiolabel transport assay in cas9 cells. The following applies: cas9 cells. Type of series: cell-based, Leishmania mexicana. Here is the method: (§1) Transport assays were performed exactly as described previously. Briefly, 10^7 cells in 100 μL of assay buffer (AB) were mixed with an equal volume of radiolabel at 2× concentration for a preset time. The incubation was terminated by the addition of 700 μL of “Stop solution”, being ice-cold 1 mM solution of unlabelled permeant, followed by immediate centrifugation through an oil layer in a microfuge at 13,000 rpm. This causes the cell pellet to reside under the oil layer and isolated from residual radiolabel in the assay buffer. The tubes were flash-frozen in liquid nitrogen and the bottom tip, containing the cell pellet, cut off and collected in a scintillation tube. Cells were solubilized by gentle shaking after addition of a 2% SDS solution, before the addition of scintillation fluid (Scintilogic U, Lablogic, Sheffield, UK); the tubes were left to stand in the dark overnight before counting in a 300SL Hidex Scintillation Counter (Lablogic). Linear and nonlinear regression analyses were carried out using GraphPad Prism versions 8.0 and higher. […] However, all parameters, including Km, Vmax, Ki, given are the average of at least three separate, independent determinations; errors given are standard errors, unless otherwise specified.

Series [2] addresses T1, TcrNB2 (Trypanosoma cruzi, UniProt Q4DHG0).
T1 sequence (Q4DHG0 1-440): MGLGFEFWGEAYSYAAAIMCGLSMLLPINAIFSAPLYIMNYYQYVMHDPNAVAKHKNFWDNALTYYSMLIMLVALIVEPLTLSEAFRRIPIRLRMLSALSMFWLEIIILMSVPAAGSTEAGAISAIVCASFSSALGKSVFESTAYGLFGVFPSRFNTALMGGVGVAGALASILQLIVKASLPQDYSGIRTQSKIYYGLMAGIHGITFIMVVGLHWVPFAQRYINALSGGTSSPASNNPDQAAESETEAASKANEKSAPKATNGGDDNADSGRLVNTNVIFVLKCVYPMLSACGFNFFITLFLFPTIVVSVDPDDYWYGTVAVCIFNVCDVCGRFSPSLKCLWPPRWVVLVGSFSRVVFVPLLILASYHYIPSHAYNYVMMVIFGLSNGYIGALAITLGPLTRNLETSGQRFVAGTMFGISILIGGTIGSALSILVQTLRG
Briefly: Transport assay, TcrNB2 expressed in LmexNT3-KO. Type of series: cell-based. Here is the method: as §1

In series [3] the test system is L. mexicana NT3-KO promastigotes. As to the kind of experiment: Radiolabel transport assay in NT3-KO cells. The format is cell-based, Leishmania mexicana. Particulars: for rate of uptake: NT3-KO cells; for upregulation of uptake rate in NT3-KO relative to cas9: adenosine and inosine at 100 nM, separate experiments listed singly. As for the experimental part:
as §1

The subject of series [4] is L. mexicana cas9 cells. Briefly: Growth curve of cas9 cells with selection agents. The format is cell-based, Leishmania mexicana. Particulars: 5 μM tubercidin, 5 μg/mL blasticidin, 20 µg/mL puromycin, 1 µM formycin B. Here is the method: The growth rates of the L. mexicana promastigotes were determined in the standard HOMEM medium supplemented with 10% FBS, in 12-well plates, in triplicate. After every 24 h, cells were counted in a sample of the culture, using either a Neubauer hemocytometer chamber (Hawksley, Birmingham, UK) or by a coulter particle counter and size analyzer (Beckman, Brea, CA, USA) to count the cells in triplicate. An average of the triplicate readings was taken and plotted using GraphPad Prism 8 software to obtain the growth curves.

Series [5] deals with L. mexicana SUPKO (ΔNT1.1/1.2/2) cells. Briefly: Radiolabel transport assay in SUPKO cells. Type of series: cell-based, Leishmania mexicana. Particulars: for rate of uptake: SUPKO cells; for uptake reduced in SUPKO compared to cas9: 100 nM (0.1 µM) radiolabel. Here is the method: as §1
Series [6] concerns the target T2, TvagENT3 (Trichomonas vaginalis, UniProt A2E5Q3). As to the kind of experiment: cell-based. As for the experimental part: as §1
Another series relates to L. mexicana NT2-KO cells. As to the kind of experiment: Radiolabel transport assay in NT2-KO cells. Type of series: cell-based, Leishmania mexicana. Particulars: for inhibition of residual [^3H]-guanosine uptake in NT2-KO: 250 µM inhibitor, 100 nM [^3H]-guanosine. Here is the method:
as §1

Series [7] has as its target T1, TcrNB2. Briefly: Transport assay, TcrNB2 expressed in NT1-KO. Particulars: 50 nM [^3H]-adenosine, 100 nM [^3H]-hypoxanthine, 100 nM [^3H]-uracil; data not shown. The format is cell-based. Here is the method: as §1
For series [8], the target named is T2, TvagENT3. Particulars: TvagENT3 expressed in T. brucei; cited from earlier work.
Series [9] concerns L. mexicana NT1-KO promastigotes. As to the kind of experiment: Resazurin (Alamar blue) drug sensitivity assay, NT1-KO line. The format is cell-based, Leishmania mexicana. As for the experimental part:
The assay is based on the reduction of the dye resazurin (Alamar blue) by live but not dead cells and was performed with various strains of Leishmania mexicana promastigotes, exactly as described. Briefly, doubling dilutions starting at 100 µM were set up over 2 rows of a 96-well plate and 2 × 10^5 cells were added to each well, followed by incubation at 25 °C. After 72 h, 20 µL of 125 µg/mL resazurin solution was added and the plates incubated for a further 24 h. Fluorescence was determined in a FLUOstar OPTIMA plate reader (BMG Labtech, Ortenberg, Germany), reading the fluorescence intensity in arbitrary units (A.U.) at 544 nm wavelength for excitation and 620 nm wavelength for emission. The EC50 values and fluorescence data were determined and plotted to a sigmoid curve with variable slope, using the GraphPad Prism 8 software package. All EC50 values were determined on at least three independent occasions and are presented as average ± SEM.

For another series, the system named is LmexNT1.2. As to the kind of experiment: Transport assay, LmexNT1.2 expressed in SUPKO. The format is cell-based, Leishmania mexicana. Here is the method:
as §1

A further series addresses L. major U1 transporter. Also noted: method as in PMID 15796010. Particulars: unit printed only with the uridine value; cited from earlier work.
Another series relates to LmexNT1.1. Briefly: Transport assay, LmexNT1.1 expressed in SUPKO. The format is cell-based, Leishmania mexicana. The following applies: SUPKO expressing LmexNT1.1, 50 nM radiolabel. As for the experimental part:
as §1

Substrate in series [10]: Nc1ncnc2nc[nH]c12
Briefly: Transport assay, TcrNB2 expressed in LmexNT3-KO. Type of series: cell-based, Trypanosoma cruzi. Here is the method:
as §1

The mark [11] stands for this setting: 100 nM radiolabel, listed as [^3H]-guanosine.

“And” between values parts separate entries of the source, which are not always exact repeats. Equal values may be shown once. Read-outs that look alike come from different tables or passages of the source.

T2 sequence (A2E5Q3 entry or part of it): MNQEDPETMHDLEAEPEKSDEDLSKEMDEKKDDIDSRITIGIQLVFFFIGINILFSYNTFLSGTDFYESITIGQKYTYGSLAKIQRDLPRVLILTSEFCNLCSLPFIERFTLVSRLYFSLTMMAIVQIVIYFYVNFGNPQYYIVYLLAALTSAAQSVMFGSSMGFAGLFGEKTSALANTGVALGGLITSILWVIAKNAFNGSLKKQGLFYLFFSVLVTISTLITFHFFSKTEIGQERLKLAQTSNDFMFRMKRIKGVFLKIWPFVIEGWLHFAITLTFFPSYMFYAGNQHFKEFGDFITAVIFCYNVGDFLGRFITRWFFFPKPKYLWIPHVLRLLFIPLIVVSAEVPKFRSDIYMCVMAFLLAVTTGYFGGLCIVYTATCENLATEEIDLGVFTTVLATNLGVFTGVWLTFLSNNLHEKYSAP

Turning to `Nc1ncnc2[nH]cnc12` [adenine], the rate of uptake with L. mexicana cas9 cells [1] (100 nM radiolabel) is reported as 0.0213 ± 0.0009 pmol(10^7 cells)^−1s^−1; on TcrNB2 [2] (NT3-KO expressing TcrNB2, 100 nM radiolabel) it was 0.00036 ± 0.00001 pmol(10^7 cells)^−1s^−1; in series [3] (100 nM radiolabel), 0.000207 ± 0.000094 pmol(10^7 cells)^−1s^−1. The Vmax on TcrNB2 [2] (TcrNB2 in NT3-KO, n = 3) is listed as 0.26 ± 0.04 pmol(10^7 cells)^−1s^−1. The “rate of transport in NT3-KO as % of that in cas9” value in series [3] (100 nM radiolabel) was below 1%. Also, in [3] (100 nM radiolabel, over 15 s), the “uptake in NT3-KO lower than in cas9” value is above 100 fold.
With `CN(CC[C@H](N)CC(=O)N[C@H]1C=C[C@H](n2ccc(N)nc2=O)O[C@@H]1C(=O)O)C(=N)N` [blasticidin], the “sensitivity of cas9 cells in growth curve” value (“sensitivity of cas9 cells” below) with L. mexicana cas9 cells [4] is reported as “confirmed”.
As for `Nc1ccn([C@@H]2O[C@H](CO)[C@@H](O)[C@H]2O)c(=O)n1` [cytidine], in series [3] (listed as [^3H]-cytidine), the “upregulation of uptake rate in NT3-KO relative to cas9” value is 3.0 fold and 3.7 fold. For the same molecule, the rate of uptake is reported as 1.5 × 10^−5 ± 9 × 10^−6 pmol(10^7 cells)^−1s^−1 in series [5] (500 nM radiolabel) and 1.8 × 10^−4 ± 1.3 × 10^−5 pmol(10^7 cells)^−1s^−1 at TvagENT3 [6] (SUPKO expressing TvagENT3, 500 nM radiolabel).
Take `Nc1nc2c(ncn2[C@@H]2O[C@H](CO)[C@@H](O)[C@H]2O)c(=O)[nH]1` [guanosine]: the “rate of uptake lower in NT2-KO than in cas9” value in the series with L. mexicana NT2-KO cells (100 nM radiolabel) was determined as 84.5%. For the same molecule, in the series on L. mexicana NT2-KO cells, the “inhibition of residual [^3H]-guanosine uptake in NT2-KO” value was “completely inhibited”. Further, the rate of uptake in the series on L. mexicana NT2-KO cells (NT2-KO cells, 100 nM radiolabel) was 0.0009 ± 0.00014 pmol(10^7 cells)^−1s^−1; in the series on L. mexicana cas9 cells [1] (setting [11]), 0.010 ± 0.0006 pmol(10^7 cells)^−1s^−1 and 0.0058 ± 0.0003 pmol(10^7 cells)^−1s^−1; in [5] (setting [11]), 0.00046 ± 0.00011 pmol(10^7 cells)^−1s^−1. Moreover, the “upregulation of uptake rate in NT3-KO relative to cas9” value in [3] was 1.7 fold and 2.1 fold. Also, the “uptake reduced in SUPKO compared to cas9” value in series [5] is on record as 95.5%.
In the case of `O=c1[nH]cnc2nc[nH]c12` [hypoxanthine], in the series on L. mexicana NT2-KO cells, the “inhibition of residual [^3H]-guanosine uptake in NT2-KO” value is recorded as “completely inhibited”. The “effect of TcrNB2 expression on uptake in NT1-KO cells” value on TcrNB2 [7] was “did not increase”. Moreover, the inhibition at 1000 µM on TcrNB2 [2] (1 mM inhibitor, TcrNB2 in NT3-KO, read-out: inhibition of adenine uptake) amounted to 31.1 ± 4.3%. Besides, the “uptake detected in NT3-KO cells” value in series [3] (100 nM radiolabel, p = 0.72) is “no significant hypoxanthine uptake was detected”. Besides, the figures for the rate of uptake in series [3] (100 nM radiolabel) and in series [5] (100 nM radiolabel) were 0.00019 ± 0.00045 pmol(10^7 cells)^−1s^−1 and 0.045 ± 0.004 pmol(10^7 cells)^−1s^−1, respectively.
`O=c1[nH]cnc2c1ncn2[C@@H]1O[C@H](CO)[C@@H](O)[C@H]1O` [inosine]: the Ki at TvagENT3 [8] was 3.3 ± 0.07 µM; at TvagENT3 [6] (TvagENT3 in SUPKO, inhibition of 50 nM [^3H]-adenosine uptake) it was 2.7 ± 0.5 µM. In addition, the rate of uptake is recorded as 0.016 ± 0.002 pmol(10^7 cells)^−1s^−1 in the series with L. mexicana cas9 cells [1] (100 nM radiolabel) and 0.061 ± 0.002 pmol(10^7 cells)^−1s^−1 in series [3] (100 nM radiolabel). Also, the “upregulation of uptake rate in NT3-KO relative to cas9” value in series [3] stood at 4 fold.
Consider `N=C(N)c1ccc(OCCCCCOc2ccc(C(=N)N)cc2)cc1` [pentamidine], for which the “EC50 (internal control)” value in [9] (NT1-KO compared with cas9) is “unchanged”.
In the case of `COc1ccc(C[C@H](N)C(=O)N[C@H]2[C@@H](O)[C@H](n3cnc4c(N(C)C)ncnc43)O[C@@H]2CO)cc1` [puromycin], the “sensitivity of cas9 cells” value in the series with L. mexicana cas9 cells [4] was “confirmed”.
As for `Cc1cn([C@H]2C[C@H](O)[C@@H](CO)O2)c(=O)[nH]c1=O` [thymidine], the rate of uptake is on record as 0.0018 ± 0.0001 pmol(10^7 cells)^−1s^−1 in the series with L. mexicana cas9 cells [1] (50 nM radiolabel) and 8.7 × 10^−5 ± 1.2 × 10^−5 pmol(10^7 cells)^−1s^−1 in series [5] (50 nM radiolabel). Moreover, the “upregulation of uptake rate in NT3-KO relative to cas9” value in series [3] stood at 3.45 fold. Also, in series [5], the “uptake reduced in SUPKO compared to cas9” value is 95.7 ± 1.8%.
Regarding `Nc1ncnc2c1ccn2[C@@H]1O[C@H](CO)[C@@H](O)[C@H]1O` [tubercidin], in series [9] (NT1-KO vs cas9, resazurin assay), the “shift in tubercidin sensitivity” value came out at 60 fold. Further, the “sensitivity of cas9 cells” value in the series with L. mexicana cas9 cells [4] was “confirmed”.
For the molecule `O=c1ccn([C@@H]2O[C@H](CO)[C@@H](O)[C@H]2O)c(=O)[nH]1` [uridine], the rate of uptake with LmexNT1.2 (SUPKO expressing LmexNT1.2, 50 nM radiolabel) is reported as 0.0076 ± 0.0009 pmol(10^7 cells)^−1s^−1; in the series with L. mexicana cas9 cells [1] (100 nM radiolabel) it was 0.10 ± 0.003 pmol(10^7 cells)^−1s^−1; in series [5] (50 nM radiolabel) it was “not significantly different from zero”; in [5] (100 nM radiolabel), 0.0014 ± 0.00009 pmol(10^7 cells)^−1s^−1; in the series on LmexNT1.1, 0.0012 ± 0.0001 pmol(10^7 cells)^−1s^−1. The “uptake faster by cells expressing NT1.2 than NT1.1” value in the series with LmexNT1.2 (SUPKO transfectants, p = 0.0004) is 6.3 fold. Also, the “uptake reduced in SUPKO compared to cas9” value in series [5] (listed as [^3H]-uridine) was 88.3% and 98.6% and 97.5%. Also, the inhibition constant (Ki) at L. major U1 transporter is 10.9 ± 3.2 µM.

B1: TcrNB2 (Trypanosoma cruzi strain CL Brener) (protein)
chain: T1 sequence (Q4DHG0 1-440)
As to B1, the Km is reported as 14.2 ± 2.6 µM in series [10] (other: TcrNB2 in NT3-KO, 100 nM [^3H]-adenine, n = 3) and 14.99 µM in series [10] (other: one of three independent repeats, incubation time 120 s).
